Reference: patent US20080255134A1 (Artesian Therapeutics, Inc., priority 2004, published 2008)
Read-outs that look alike come from different tables or passages of the source.

Key:
[1] = test system: White New Zealand male rabbits; experiment: In vivo β-adrenergic blockade, isoproterenol challenge (Protocol 1); parameters: species or system rabbit; dose or concentration left out as unconfirmed; conditions: during isoproterenol challenge, intravenous, FIG. 10
PDE3 = target: T1, PDE3 (Homo sapiens, UniProt Q14432); experiment: In vitro assay for cAMP PDE-3 inhibitory activity; assay type: biochemical
T1 construct: from tissue; host or cells: human platelets
Procedure: Human platelet cyclic AMP phosphodiesterase was prepared according to the method of Alvarez et al., Mol. Pharmacol. 29: 554 (1986). The PDE incubation medium contained 10 mM Tris-HCl buffer, pH 7.7, 10 mM MgSO4, and 1 μM […] (0.2 μCi) in a total volume of 1.0 mL. Test compounds were dissolved in DMSO immediately prior to addition to the incubation medium, and the resulting mixture was allowed to stand for 10 minutes prior to the addition of enzyme. Following the addition of PDE, the contents were mixed and incubated for 10 minutes at 30° C. Three assays each were performed for each of five test compound concentrations, the mean of the determinations (n=3) at each concentration was plotted, and IC50 values were determined graphically.
(§1) The ability of Compounds 25 and 8c to inhibit PDE3 and β-adrenergic receptor activity was examined both in vitro and in vivo. […] Non-selective β-adrenergic and β1-adrenergic radioligand binding assays were performed using rat cortical membranes; β2-adrenergic receptor assays were performed using membranes isolated from CHO cells expressing human, recombinant b2-adrenergic receptor; non-selective α1-adrenergic receptor assays were performed using rat forebrain membranes; and PDE3 binding assays were performed on human platelets. Values in percent illustrate percent inhibition at 1000 nM concentration.

α1-adrenergic receptor = experiment: Non-selective α1-adrenergic receptor assay using rat forebrain membranes; assay type: binding
Procedure: as §1

[2] = test system: White New Zealand male rabbits; experiment: In vivo hemodynamic effects of compounds administered alone (Protocol 2); parameters: species or system rabbit
Procedure: (§2) Studies were performed on White New Zealand male rabbits (2-3 kg weight). Animals were initially anesthetized with ketamine (50 mg/kg; IM) and xylazine (6 mg/kg, IM). Subsequently, animals were intubated (via tracheotomy; 3 mm tube) and ventilated with 2% isoflurane (mixed in 95% O2+5% CO2). Each rabbit was instrumented for LV pressure (3F Millar catheter) through right carotid artery, arterial pressure (3F catheter, Cook Instruments) through left femoral artery, which was connected to a fluid-filled pressure transducer (BD Instruments), and ECG. Both pressure transducers were zeroed against atmospheric pressure, and calibrated before each study using an analog manometer. Upon completion of instrumentation, isoflurane was reduced to 1.25%, and the animal was covered for maintenance of body core temperature. Arterial and LV blood pressures (LVP) and the ECG signals were simultaneously digitally recorded on a PC. The recording system (Gould Instruments) and the corresponding software (Ponema, Gould Instruments) facilitated detailed calculation of various parameters directly from all signals and record on a separate file with a 1 sec resolution. Upon completion of the study protocol, rabbits were euthenized by isoflurane overdose (5% for at least 1 minute) and cardiac arrest through IV infusion of 5 ml 3 molar potassium chloride.
(§3) Once the physiological variables were stable, effects of each drug on hemodynamics and ECG were determined based on two different protocols: 1) infusion of a compound of the present invention to determine the effects of the compound itself mainly on contractility, and other hemodynamic indices; and 2) infusion of a compound of the present invention while the system was challenged with 0.5 ug/kg isoproterenol to determine the beta-adrenergic antagonism properties of each tested compound.
(§4) White New Zealand male rabbits (2-3 kg) were anesthetized and ventilated (95% O2+5% CO2) with 1.25% isoflurane. Each animal was instrumented for LV pressure (Millar, through left carotid artery), arterial pressure (left femoral artery), infusion (jugular vein), and electrocardiogram. The animals were administered intravenously based on one of these protocols:
Protocol 2: PDE3 inhibition (effects of compounds when administered alone).

β1-adrenergic receptor = target: T2, β1-adrenergic receptor (Rattus norvegicus, UniProt P18090); experiment: β1-adrenergic radioligand binding assay using rat cortical membranes
T2 construct: from tissue; host or cells: rat cortical membranes
Procedure: (§5) Non-selective β-adrenergic and β1-adrenergic radioligand binding assays were performed using rat cortical membranes; β2-adrenergic receptor assays were performed using membranes isolated from CHO cells expressing human, recombinant b2-adrenergic receptor; non-selective α1-adrenergic receptor assays were performed using rat forebrain membranes; and PDE3 binding assays were performed on human platelets. Values in percent illustrate percent inhibition at 1000 nM concentration.

[3] = test system: human fetal cardiac fibroblasts; experiment: Cyclic-AMP production by fluorescence (intrinsic sympathomimetic activity); assay type: cell-based; conditions: IBMX (750 μM) present; compared to isoproterenol or forskolin; any concentration tested
Procedure: The effect of Compound 8c on cyclic-AMP production was determined in human fetal cardiac fibroblasts by fluorescence, presented in FIG. 18 as [F−Fo)/Fo], mean±SEM, N=4. IBMX (750 μM) was present in all assays.

[4] = test system: White New Zealand male rabbits; experiment: In vivo β-adrenergic blockade, isoproterenol challenge (Protocol 1); parameters: species or system rabbit
Procedure: as §2, §3, §4
Protocol 1: β-adrenergic blockade (isoproterenol challenge).

[5] = target: T3, human recombinant beta-2 receptors (Homo sapiens, UniProt P07550); experiment: β2-receptor radioligand binding, [125I] iodocyanopindolol, CHO-WT21 cells
T3 construct: expressed in transfected cells; host or cells: CHO-WT21 cells
Procedure: as §5

[6] = target: beta-receptors from rat cortical membranes; experiment: Non-specific β-receptor radioligand binding, [3H]DHA; conditions: read-out: Non-selective β-adrenergic IC50
Procedure: as §5

[7] = test system: isolated ventricular myocytes; experiment: Sarcomere shortening (contractility) in isolated ventricular myocytes; assay type: cell-based, rabbit
Procedure: […] Isoproterenol, a potent β-Adrenergic agonist, can produce large increases in cardiac contraction, calcium transient amplitude, and the rates of relaxation (acceleration of relaxation or lusitropic effect). The effects of isoproterenol are then antagonized with different concentrations of a compound of the present invention.
Cardiac myocytes were digested from healthy white New Zealand male rabbits (3-5 lbs), with enzymatic digestion. Briefly, each animal is anesthetized with ketamine (50 mg/kg) and xylazine (6 mg/kg)-IM injection in hind limb. Once the animal was sedated (˜10-15 min), 0.1-0.3 ml of pentobarbital was injected into the ear vein. The heart was exposed by a cut just below the rib-cage and bilateral thoracotomy and removed rapidly ensuring that aorta remains intact. The heart was immediately placed in oxygenated NT with Ca^2+ placed on ice for rinsing the blood out, cleared from vessels and pericardium, cannulated and maintained at 37° C. The heart was retrogradedly perfused and tissue digested with collagenase and protease. Digested myocytes were subsequently stored in 0.1 mM Ca^2+ normal tyrodes for further analyses. Sarcomere length changes upon treatment with test compounds were recorded at 37° C. in the presence of 2 mM calcium and analyzed with an IonOptix system. Sarcomere length data was acquired for each myocyte over an average of 10 beats duration, at pacing rates of 1, 2, and 3 Hz. Basal percent sarcomere shortening and length-frequency relation of each myocyte was evaluated, and serve as a measure of cellular viability.
In vitro studies were performed using rabbit ventricular tissue, to examine the effects of Compounds 25 and 8c on myocyte contractility. New Zealand male rabbits (1.5-2.5 kg) were anesthetized with ketamine (50 mg/kg) and xylazine (6 mg/kg)-IM. The heart was exposed and removed rapidly to ensure that the aorta remained intact. The ventricular tissue was digested enzymatically. Sarcomere shortening was measured in the presence of 2 mM calcium at 37° C. using an IonOptix system; reported values were at 2 Hz pacing frequency.

[8] = target: T4, human recombinant beta-1 receptors (Homo sapiens, UniProt P08588); experiment: β1-receptor radioligand binding, [125I] iodocyanopindolol, CHO-REX16 cells; conditions: at 100 nM
T4 construct: expressed in transfected cells; host or cells: CHO-REX16 cells
Procedure: […] receptor binding was measured in human recombinant beta-1 receptors expressed in CHO-REX16 cells, using [^125I] (-) iodocyanopindolol (2000 Ci/mmol) as the radioligand, as described in Kalaria et al., J. Neurochem. 53: 1772-81 (1998), and Minneman et al., Mol. Pharmacol. 16: 34-46 (1979).

T3 sequence (P07550 whole entry): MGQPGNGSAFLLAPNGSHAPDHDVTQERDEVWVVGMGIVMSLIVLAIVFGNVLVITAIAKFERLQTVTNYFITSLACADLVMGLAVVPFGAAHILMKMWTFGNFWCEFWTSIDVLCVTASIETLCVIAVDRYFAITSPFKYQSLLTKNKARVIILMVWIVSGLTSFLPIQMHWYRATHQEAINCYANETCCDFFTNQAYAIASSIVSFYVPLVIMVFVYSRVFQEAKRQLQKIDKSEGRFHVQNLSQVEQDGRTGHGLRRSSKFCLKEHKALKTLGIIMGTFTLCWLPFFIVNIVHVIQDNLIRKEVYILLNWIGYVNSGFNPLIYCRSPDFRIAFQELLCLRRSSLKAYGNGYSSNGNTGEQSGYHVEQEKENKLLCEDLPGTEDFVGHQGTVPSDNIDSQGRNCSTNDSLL
T1 sequence (Q14432 whole entry): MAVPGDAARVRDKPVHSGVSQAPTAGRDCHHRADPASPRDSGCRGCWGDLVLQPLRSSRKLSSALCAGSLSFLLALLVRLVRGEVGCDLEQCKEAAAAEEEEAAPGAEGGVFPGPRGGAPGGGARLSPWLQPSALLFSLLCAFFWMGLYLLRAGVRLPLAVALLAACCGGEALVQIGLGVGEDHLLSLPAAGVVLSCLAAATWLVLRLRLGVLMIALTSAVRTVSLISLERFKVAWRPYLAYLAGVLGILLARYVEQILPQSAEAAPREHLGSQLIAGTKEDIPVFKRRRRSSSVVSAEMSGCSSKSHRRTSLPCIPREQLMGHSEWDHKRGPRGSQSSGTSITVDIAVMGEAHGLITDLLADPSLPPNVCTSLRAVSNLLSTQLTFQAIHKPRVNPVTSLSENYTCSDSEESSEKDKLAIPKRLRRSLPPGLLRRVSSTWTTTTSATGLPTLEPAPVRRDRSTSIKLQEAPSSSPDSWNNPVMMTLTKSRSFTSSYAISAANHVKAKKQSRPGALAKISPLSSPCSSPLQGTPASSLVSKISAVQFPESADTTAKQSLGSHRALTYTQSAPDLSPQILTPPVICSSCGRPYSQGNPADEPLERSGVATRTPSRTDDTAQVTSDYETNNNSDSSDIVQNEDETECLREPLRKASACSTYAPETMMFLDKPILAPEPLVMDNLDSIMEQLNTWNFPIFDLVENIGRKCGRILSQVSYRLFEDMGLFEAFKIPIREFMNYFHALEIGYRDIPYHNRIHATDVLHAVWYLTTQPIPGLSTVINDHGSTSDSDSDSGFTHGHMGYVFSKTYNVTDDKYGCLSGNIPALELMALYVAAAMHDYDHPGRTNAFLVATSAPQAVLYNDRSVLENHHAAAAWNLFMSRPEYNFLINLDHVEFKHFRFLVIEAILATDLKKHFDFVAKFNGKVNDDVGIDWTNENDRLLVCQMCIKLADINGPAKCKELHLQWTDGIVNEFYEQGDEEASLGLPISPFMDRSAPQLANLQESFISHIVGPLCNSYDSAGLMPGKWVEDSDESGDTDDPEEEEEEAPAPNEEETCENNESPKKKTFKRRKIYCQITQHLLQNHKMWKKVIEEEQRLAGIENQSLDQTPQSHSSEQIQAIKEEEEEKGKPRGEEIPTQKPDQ
T2 sequence (P18090 whole entry): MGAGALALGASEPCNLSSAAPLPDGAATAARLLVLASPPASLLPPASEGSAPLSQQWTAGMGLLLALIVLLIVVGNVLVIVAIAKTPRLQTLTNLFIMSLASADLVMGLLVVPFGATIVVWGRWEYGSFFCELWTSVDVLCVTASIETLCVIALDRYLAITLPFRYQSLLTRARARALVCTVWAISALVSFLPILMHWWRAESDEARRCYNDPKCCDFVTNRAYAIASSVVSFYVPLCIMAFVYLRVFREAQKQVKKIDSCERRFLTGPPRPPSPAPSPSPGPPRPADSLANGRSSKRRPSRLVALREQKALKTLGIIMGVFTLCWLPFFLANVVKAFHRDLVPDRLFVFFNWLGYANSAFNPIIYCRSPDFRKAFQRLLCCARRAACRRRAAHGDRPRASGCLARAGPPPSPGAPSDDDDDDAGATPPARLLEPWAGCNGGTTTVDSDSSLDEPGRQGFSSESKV
T4 sequence (P08588 whole entry): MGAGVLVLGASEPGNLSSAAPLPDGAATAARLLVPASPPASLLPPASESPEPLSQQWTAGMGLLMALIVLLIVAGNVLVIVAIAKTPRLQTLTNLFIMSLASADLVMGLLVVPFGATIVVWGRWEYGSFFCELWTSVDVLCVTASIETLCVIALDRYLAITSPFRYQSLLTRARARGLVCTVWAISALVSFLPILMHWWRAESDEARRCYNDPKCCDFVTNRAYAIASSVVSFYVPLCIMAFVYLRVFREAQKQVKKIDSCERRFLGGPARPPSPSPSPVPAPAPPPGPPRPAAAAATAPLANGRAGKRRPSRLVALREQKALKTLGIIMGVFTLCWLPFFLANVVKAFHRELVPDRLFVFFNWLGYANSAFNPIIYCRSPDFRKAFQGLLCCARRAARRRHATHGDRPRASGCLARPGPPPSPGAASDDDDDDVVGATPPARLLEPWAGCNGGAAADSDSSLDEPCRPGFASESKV

IC50 (PDE3; human platelet cyclic AMP phosphodiesterase, bound stated, read-out: PDE3 inhibition IC50): < 1000 nM
IC50 (PDE3; human platelets, read-out: PDE3 IC50): 150 nM
IC50 (α1-adrenergic receptor): 226 nM
IC50 (β1-adrenergic receptor): 5 nM
inhibition at 0.1 µM ([5]; at 100 nM): > 25%
IC50 ([5]; membranes from CHO cells expressing human recombinant β2-adrenergic receptor): 0.8 nM
IC50 [6]: 14 nM
inhibition at 0.1 µM [8]: > 25%
SMILES: O=C1CCC(c2ccc(OCC(=O)N3CCC(NC[C@H](O)COc4ccccc4Cl)CC3)c(Cl)c2)=NN1 [Compound 8c, 6-[3-Chloro-4-(2-{4-[3-(2-chloro-phenoxy)-2-hydroxy-propylamino]-piperidin-1-yl}-2-oxo-ethoxy)-phenyl]-4,5-dihydro-2H-pyridazin-3-one]
β-adrenergic antagonism on left ventricular contractility [1]: potent dose-dependent β-adrenergic antagonism
heart rate when administered alone ([2]; Protocol 2, with and without atropine and bilateral vagotomy (FIG. 16)): did not increase heart rate
mean arterial pressure ([2]; doses that completely diminished isoproterenol-dependent increase in heart rate, Protocol 2, FIG. 15): did not have a significant effect
left ventricular contractility when administered alone ([2]; protocol 2, relative to control, FIGS. 2, 12): increased or maintained contractility in a dose-dependent manner
intrinsic sympathomimetic activity (cyclic-AMP production) [3]: did not possess intrinsic sympathomimetic activity
decrease of left ventricular contractility (% of isoproterenol effect) ([4]; doses that completely diminished isoproterenol-dependent increase in heart rate: atenolol 1 mg/kg, carvedilol 0.3 mg/kg, Compound 8c 1 mg/kg, mean±SEM): 73±4%
β-adrenergic antagonism on heart rate (HR) ([4]; during isoproterenol challenge (0.5 μg/kg), FIG. 11): dose-dependent β-adrenergic antagonism
blocking of isoproterenol effect on myocyte contractility ([7]; 0.1 μM isoproterenol (not shown)): blocking the effects of 0.1 mM isoproterenol
contractility (sarcomere shortening) in isolated ventricular myocytes ([7]; 2 mM calcium, 37° C., 2 Hz pacing frequency): increased contractility
